Measurements as given in paper PMC5923142, “Selection and Characterization of Rupintrivir-Resistant Norwalk Virus Replicon Cells In Vitro” (Antimicrobial Agents and Chemotherapy, 2018).

Key:
Norwalk virus replicon [1] = assay: Replicon clearance from HGT-NV cells over 12 days without G418 (qRT-PCR); type: cell-based, Human norovirus (HuNoV) GI; details: 12 days posttreatment, no G418
Method: To confirm the previously reported inhibitory effects of rupintrivir on human norovirus replication ([10]), we generated a human gastric adenocarcinoma cell line, HGT-NV, which stably maintained a Norwalk virus replicon encoding the neomycin resistance gene in place of the major capsid protein. The effects of rupintrivir on norovirus RNA replication in the replicon cells were evaluated by quantitative reverse transcription-PCR (qRT-PCR). […] To determine the concentration of rupintrivir sufficient to completely eliminate the norovirus replicon from HGT-NV cells, we treated the replicon cells with 2.5, 5, and 10 μM rupintrivir in the absence of G418 for up to 12 days. The replicon cells were passaged on days 3, 8, and 12, and the levels of replicon RNA were quantified by qRT-PCR. […] To further characterize the inhibitory effects of rupintrivir, we performed a colony formation assay with replicon cells treated with rupintrivir for 12 days. […]
(§1) The inhibitory effect of rupintrivir on HuNoV replication was assessed by quantification of the levels of GI NuNoV RNA and β-actin RNA as the reference gene. […] The real-time quantitative reverse transcription-PCR (qRT-PCR) assay was performed by using a One-Step Plus qRT-PCR kit according to the protocol of the manufacturer (Primer Design). […] Relative quantification was performed using the 2^−ΔΔCT threshold cycle (CT) method ([38]). […]

GI WT protease = biological target: T1, GI WT protease (Norovirus, UniProt Q83883); assay: Cell-based FRET assay, GI WT protease; set-up: species or system norovirus GI.1 (M87661); details: HEK293T cells, GI NS1/2-NS3 FRET substrate; read-out: 50% inhibitory concentration (IC50)
T1 construct: plasmids expressing norovirus protease from GI.1 (M87661); expressed in transfected cells; host or cells: HEK293T
Text: The generation of plasmids expressing norovirus protease from GI.1 (M87661), GII.4 (DQ658413), or GV (DQ285629) norovirus and FRET assay constructs has been described previously ([18]). The plasmids carrying GI, GII, and GV proteases with the A105V, I109V, or A105V/I109V mutation were generated from the wild-type (WT) protease constructs described above by the QuikChange site-directed mutagenesis method. Mutant MNV genomes for reverse genetics were generated by two-step PCR mutagenesis of the WT MNV genome (pT7 MNV 3RZ) construct as described previously ([27]). The primers used for generation of the plasmids are listed in Tables S1 and S2 in the supplemental material.
The YFP/CFP ratio was used to determine FRET efficiency, as described previously ([18], [40]). Briefly, HEK293T cells were plated into black 96-well cell culture microplates (Greiner Bio-One) at a density of 5 × 10^4 cells/well in 100 μl of DMEM containing 10% fetal bovine serum with or without various concentrations of rupintrivir and then incubated for 4 h in a CO2 incubator at 37°C. […] The plates were then analyzed on a SpectraMax i3 instrument in fluorescence mode, with excitation set at 434 nm and the reading emissions set at 477 nm (CFP) and 527 nm (YFP). The background fluorescence from wells transfected with pcDNA3.1 was determined and subtracted. […]

Norwalk virus replicon [2] = assay: Susceptibility of HGT-NV replicon cells passaged in parallel in DMSO (qRT-PCR); type: cell-based, Human norovirus (HuNoV) GI
Method: Given the potent effects of rupintrivir on HGT-NV cells, we sought to determine whether rupintrivir-resistant replicons could be generated. To this end, HGT-NV cells were treated with 5 μM rupintrivir for 12 days in the absence of G418 selection, followed by subsequent passages in the presence of G418 with increasing concentrations of rupintrivir for up to 45 days (Fig. 1D). This approach yielded three lineages of replicon cells which were resistant to 10, 15, and 20 μM rupintrivir. To identify the mutations conferring the resistance to rupintrivir, we isolated cell clones by limiting dilution using replicon cells surviving after 45 days of culture and then evaluated the rupintrivir sensitivity of the replicon cells. […] All clones treated with 10 μM rupintrivir had the I109V single amino acid substitution, while the A105V/I109V double amino acid substitution was observed only in clones treated with 15 and 20 μM rupintrivir. […]
as §1

T1 sequence (Q83883 1101-1281): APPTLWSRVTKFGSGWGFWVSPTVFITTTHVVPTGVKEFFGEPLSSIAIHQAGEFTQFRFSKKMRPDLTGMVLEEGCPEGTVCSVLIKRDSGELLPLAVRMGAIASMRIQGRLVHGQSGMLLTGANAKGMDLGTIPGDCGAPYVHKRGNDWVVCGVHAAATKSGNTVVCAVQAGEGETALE

## CCOC(=O)/C=C/[C@H](C[C@@H]1CCNC1=O)NC(=O)[C@@H](CC(=O)[C@@H](NC(=O)c1cc(C)on1)C(C)C)Cc1ccc(F)cc1 [rupintrivir, Rupintrivir]
Norwalk virus replicon [1]; 5 μM
  level of replicon RNA: below the limit of quantification
Norwalk virus replicon [1]; 10 μM
  level of replicon RNA: below the limit of quantification
GI WT protease
  IC50: 1300 ± 400 nM
Norwalk virus replicon [2]; DMSO-passaged cells, relative to DMSO
  Fold change in sensitivity: 1.0
Norwalk virus replicon [2]; Norwalk virus, read-out: Mean EC50 ± SD
  EC50: 1300 ± 200 nM
